Results: US7148244B2, “Medicines in controlling Vpr function” (Nippon Shinyaku Co. Ltd., priority 2001, dated 2006)

What was measured:
[1] = test system: HeLa; experiment: In vitro functional antagonism between flavonoid (quercetin) and compound; microscopic observation of cell morphologies; type: cell-based
Protocol: Three types of cells were employed (HeLa, ECV304, and HBL-100, purchased from ATCC), and for each type, 1×10^5 cells were seeded in a 10 cm dish and cultured in D-MEM/F-12 medium (Gibco BRL) for 18–20 hours. On the next day, the medium was changed to the same medium containing 1.0 μM quercetin (Sigma; hereinafter abbreviated to QCT), followed by culturing for an additional 2 days. The compound A was then added at a concentration of 600 nM, and 72 hours later observations under a microscope were made of cell morphologies.

[2] = target: T1, FLAG-fused Vpr (Human immunodeficiency virus type 1 group M subtype B, UniProt P12520); experiment: In vitro direct binding of Vpr and compound; affinity precipitation with compound-immobilized Sepharose beads; set-up: species or system HIV
T1 construct: made in house; host or cells: TNT-coupled wheat germ extract in vitro transcription/translation (Promega), with 35S-methionine
From the text: A Vpr gene fused to N-terminal FLAG (SEQ ID NO:1) was obtained by PCR (polymerase chain reaction) using as a template pBT-1 (purchased from ATCC) into which the HIV genome without env had been incorporated. Primers utilized were synthetic DNAs having the following sequences (SEQ ID NOs:1 and 2). N-terminal FLAG: Asp Tyr Lys Asp Asp Asp Asp Lys (SEQ ID NO:1);
The DNA fragment of interest (300 bp) was recovered from PCR reaction products by agarose gel electrophoresis, and then cloned into the pGEM-T vector (Promega). This fragment was base analyzed on both plus and minus strands and was verified to correspond to the intended fused Vpr. The vector into which the Vpr gene fused to FLAG has been incorporated is hereinafter referred to as pGEM-T/Vpr-wt. […]
(§1) Preparation of FLAG-fused Vpr was performed by transcription and translation from the T7 promoter employing the TNT-coupled wheat germ extract in vitro transcription/translation system (wheat germ extract transcription/translation system) (Promega). […] Whether these products were Vpr was analyzed by carrying out western blotting according to typical procedures employing an anti-FLAG antibody after samples resulting from transcription and translation in the absence of the radiolabel were denatured with SDS (sodium dodecylsulfate). […]

[3] = target: T2, FLAG-fused VprΔC (Human immunodeficiency virus type 1 group M subtype B, UniProt P12520); experiment: as above; set-up: species or system HIV; conditions: FIG. 2 (2) lane 5
T2 construct: made in house; host or cells: TNT-coupled wheat germ extract in vitro transcription/translation (Promega), with 35S-methionine
From the text: The DNA fragment of interest (300 bp) was recovered from PCR reaction products by agarose gel electrophoresis, and then cloned into the pGEM-T vector (Promega). This fragment was base analyzed on both plus and minus strands and was verified to correspond to the intended fused Vpr. The vector into which the Vpr gene fused to FLAG has been incorporated is hereinafter referred to as pGEM-T/Vpr-wt. Furthermore, using this pGEM-T/Vpr-wt as a template, a second Vpr gene fused to FLAG in which a C-terminal region of Vpr (a.a. 73–96) was deleted was obtained by PCR utilizing primers shown below (SEQ ID Nos:4 and 5).
This fused gene was cloned into the pGEM-T vector as described above, and the resulting vector is hereinafter referred to as pGEM-T/VprΔC. […]
as §1

[4] = target: Vpr (Human immunodeficiency virus type 1 group M subtype B, UniProt P12520); conditions: literature, Shimura M. et al. 1999; cited from earlier work
Chain of Vpr (P12520 whole entry): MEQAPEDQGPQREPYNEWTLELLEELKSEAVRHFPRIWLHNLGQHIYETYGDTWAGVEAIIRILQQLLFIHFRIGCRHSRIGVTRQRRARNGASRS

T1 sequence (P12520 whole entry, the tested form may be a part): as the sequence (P12520 whole entry) above
T2 sequence (P12520 1-72, stated change not applied): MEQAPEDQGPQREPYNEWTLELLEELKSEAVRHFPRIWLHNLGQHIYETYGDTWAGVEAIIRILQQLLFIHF

Structure (SMILES) | effects of the compound after pre-treatment with quercetin ([1]; HeLa cells, 1.0 μM quercetin for 48 hours, then compound 600 nM for 72 hours) | cell cycle state, cell morphology under a microscope ([1]; HeLa cells, compound 600 nM alone, 72 hours, compared with the control group) | number of multinucleate cells having plural nuclei within single cells ([1]; compound 600 nM alone, 72 hours, compared with the control group) | binding of radiolabeled FLAG-fused Vpr to compound-immobilized beads ([2]; affinity precipitation, FIG. 2 (2) lane 3) | region of Vpr to which the compound binds ([2]; concluded from binding to Vpr and no binding to VprΔC) | binding of radiolabeled FLAG-fused VprΔC (C-terminal a.a. 73–96 deleted) to compound-immobilized beads [3] | effect on Vpr functions [4]
COc1ccc(S(=O)(=O)Nc2c(/C=C/c3ccncc3)cccc2OCCN)cc1 [compound B, (E)-4-[2-{3-(2-aminoethyloxy)-2-[N-(4-methoxybenzenesulfonyl)amino]phenyl}ethenyl]pyridine] | disappear almost completely | the cell cycle is arrested at the G2/M period | apparently increased | observed to bind | binds directly to the C-terminal region | not observed to bind | –
O=c1c(O)c(-c2ccc(O)c(O)c2)oc2cc(O)cc(O)c12 [quercetin] | – | – | – | – | – | – | inhibits Vpr functions
